Series [1] deals with alkaline phosphatase. Briefly: Alkaline phosphatase experiment, seventh week: 1:100 vs 1:1000 dilution, room temperature vs 37° C. The following applies: for OD405 reading, 1:1000 ethanol solvent condition (FIG. 9B): 4-hour exposure, 1-hour PNPP.
Protocol: Preparation • 1. Alkaline phosphatase reaction reagent • a. 1:100 • i. PBS: Take 400 μL of AP (1:10) stock solution, add to 3.6 mL PBS. Vortex mix and then invert to mix 10 times • ii. […] Vortex mix and then invert to mix 10 times • b. 1:1000 • i. PBS: Take 400 μL of AP (1:100) stock solution, add to 3.6 mL PBS. Vortex mix and then invert to mix 10 times • ii. […] Vortex mix and then invert to mix 10 times • 2. Prepare 0.5 mL microcentrifuge tubes for dosing • a. One set for room temperature, one set for 37° C. • 3. Prepare 96-well plates for PNPP reading (3 wells for each test chemical) • a. Aliquot with 200 μL PNPP Conditions • 1. 1:100 in PBS at RT • 2. […] 1:100 in PBS at 37° C. • 4. […] 1:1000 in PBS at RT • 6. […] 1:1000 in PBS at 37° C. • 8. […] Procedure • 1. In each microcentrifuge tube for each condition, add 180 μL of the corresponding AP reaction reagent • 2. Add 20 μL of the test chemical to each microcentrifuge tube • 3. Incubate for 4 hours (one set at room temperature; one set at 37° C.) • 4. To prepared 96-well plates with 200 μL PNPP aliquoted, add 20 μL of each microcentrifuge tube to the corresponding well • 5.
Series [2] relates to alkaline phosphatase. Type of series: biochemical. The procedure:
New stocks were made the of the 1:100 alkaline phosphatase reaction reagents.
The conditions included: 1:100 dilution of alkaline phosphatase reaction reagent with two solvents (buffered saline and ethanol), dosing in 0.5 mL microcentrifuge tubes with 20 μL of chemical added to 180 μL of reaction reagent, and incubating with p-Nitrophenyl phosphate disodium salt (PNPP) substrate for 1-hour.

The subject of a further series is skin. Conditions: cited from earlier work.
The next series deals with porcine skin. Conditions: R 1 and 2. The procedure:
Our initial studies involved using fresh and frozen porcine skin “buttons”. These buttons were punched out of porcine skin (Spear Products, Cooopersburg, PA) using a […] biopsy punch tool. Three different kinds of skin buttons were prepared from fresh porcine skin, frozen porcine skin, and frozen porcine skin with the fatty layer removed. […] The next day, the tubes were taken out and vortexed and 500 μL of the solution was aliquoted into cuvettes to read at three different optical density wavelengths (OD190, OD290, OD300) to evaluate the best response.
Skin Preparation • 1. Thaw 2 pieces of frozen porcine skin • 2. Punch out buttons: 24 buttons in each tube filled with 40 mL PB S-Azide 96-well plate Preparation • 1. Plate layout for dosing:
Procedure • 1. Dose each tissue with 140 μL of test chemical • 2. […] Take out of incubator and vortex pulse 3× • 2. Aliquot 500 μL to cuvette and read results at OD190, OD290, and OD300
There were three readings done at an optical density of 190, 290, and 300 nm to evaluate the best response. […] To address the variable exposure conditions, our next studies involved placing a larger porcine skin section into a holder that exposes only the epidermis side with no potential for test chemical exposure from the backside or through the sides.

Another series has as its system phosphatase. Type of series: biochemical, porcine. The procedure: Our next studies involved applying the test substance (500 μL) directly to the epidermis side of previously frozen porcine skin (Spear Products, Coopersburg, PA) that is placed in a holder that only exposes the epidermis side for 30 minutes, adding phosphate buffered saline (PBS) with added sodium azide (metabolic inhibitor that ensure no viable tissue), then aliquoting into cuvettes to read at an optical density of 300 nm. […] So, at the end of the initial studies described above, almost out of frustration, we tried to probe for released phosphatase activity using p-Nitrophenyl phosphate disodium salt (PNPP; Sigma Aldrich, St. Louis, MO) substrate solution to detect any presence of phosphatase.
Preparation • 1. Thaw 2 pieces of frozen porcine skin • a. Punch out as many skin discs and mount in holders • 2. Label cuvettes (3 for each chemical) Procedure • 1. Add 500 μL of test chemical to holder; incubate at room temperate for 30 minutes • 2. After 30 minutes, add 2 mL of PBS-Azide to both the holder containing the test chemical; forcefully pipette and re-pipette 10 times • 3. From the holder, aliquot 400 μL into 3 cuvettes; forcefully pipette and re-pipette 3 times before dispensing into cuvettes Reading Results • 1. Measure at OD300 for all cuvettes
Skin corrosion by GHS Category 1 dermal corrosive chemicals results in the disintegration of the epidermis into the dermis.

The subject of series [3] is alkaline phosphatase. The series is described as follows: Alkaline phosphatase experiment, ninth week: microcentrifuge tubes vs glass vials. The format is biochemical. The following applies: ethanol alkaline phosphatase 1:100, 4 hours room temperature, 1-hour PNPP. The method, then:
Feb. […] The test chemicals included water, acetic acid, heptanal, dimethylisopropylamine, n-Heptylamine, and N,N-Dimethylbenzylamine. We believe that when tilting the glass vial to mix by pipette/re-pipette, the alkaline phosphatase is sticking to the sides and therefore when the p-Nitrophenyl phosphate disodium salt (PNPP) is added, it immediately detects alkaline phosphatase presence and turns intensely yellow. In addition, by sticking to the side of the vial, since the volume of the test chemical added is low, the chance the test chemical interacting with the alkaline phosphatase might be less, therefore resulting in an intensely yellow enzyme reaction product. This study focused on the two stocks (one from previous experiment and a freshly made one) 1:100 concentration ethanol alkaline phosphatase reaction reagent. […] For the 4 mL vials, 30 μL of the test chemical is added to 300 μL of the alkaline phosphatase reaction reagent and incubated for 4 hours at room temperature.

Series [4] has as its system alkaline phosphatase. Type of series: biochemical. The following applies: PBS; 18 hours room temperature, PNPP 1 hour. From the text:
Our next study compared different dilutions of the original alkaline phosphatase source (1:10 [Activity: 1,000 units] and 1:100 [100 units]) and two sources of alkaline phosphatase, both purchased from Sigma Aldrich (St. Louis, MO). […] The five conditions for this study included original alkaline phosphatase (1:1), original alkaline phosphatase (1:10), original alkaline phosphatase (1:100), new alkaline phosphatase (1:1), and the blanks (phosphate buffered saline (PBS)). […] The two controls contained ink to determine if there would be any background effect.
Preparation • 1. Alkaline phosphatase reaction reagent • a. Original AP • i. Add 1 mL PBS into AP vial, pipette re-pipette 10 times, then invert with cap on, to mix well. Take this 1 mL and add to 50 mL conical tube filled with 40 mL PBS. Invert to mix 10 times, vortex mix, let sit 2 minutes, invert to mix again 10 times • ii. Prepare 2 more 50 mL conical tubes • 1. 1:10 • a. […] 1:100 • a. Take 4 mL of solution made above, add to 36 mL PBS. […] New AP • i. Add 400 mg into a 50 mL conical tube filled with 40 mL PBS. Invert to mix 10 times, vortex mix, let sit 2 minutes, invert to mix 10 more times. Check to make sure all suspended. If not, vortex mix and invert until fully suspended. • 2. Prepare 24-well plates • 3. […] Aliquot with 200 μL PNPP Conditions • 1. Old AP • 2. Old AP (1:10) • 3. Old AP (1:100) • 4. New AP • 5. Blank (PBS only) Procedure • 1. 24-well plates • a. Add 1 mL (using P1000, blue tips) of the prepared PBS-AP to the plate (for each condition) • b. Add 100 μL of the test material to the well, mix with the same pipette tip, dispose and repeat for the rest of the test materials • c. Wrap the plate in saran wrap and place into the container • d. […] To the prepared 96-well plate with 200 μL PNPP or PBS, add 20 μL from the 24-well plate • 3. Incubate for 1 hour • 4.

The conditions of series [5]: cited from earlier work.
Series [6] deals with alkaline phosphatase. The following applies: 30 μL chemical in 300 μL reagent 1:100, 4 hours room temperature, 3 mL PNPP 1 hour.
Protocol: We changed the test chemical dosage to 30 μL and the alkaline phosphatase reaction reagent to 300 μL, but kept the incubation to 4 hours at room temperature.
PBS: Take 4 mL of AP (1:10) stock solution, add to 36 mL PBS. Vortex mix and then invert to mix 10 times • ii. […] Vortex mix and then invert to mix 10 times • b. PBS (lx) • c. […] Prepare 4 mL glass vials for dosing • a. Four sets • i. R1+ (PBS-AP) • ii. R1− (PBS) • iii. […] Prepare 96-well plates for PNPP reading (3 wells for each test chemical) Procedure • 1. Aliquot 300 μL of each reaction reagent to 4 mL glass vials. • 2. Add 30 μL of the test sample to each 4 mL glass vial. • 3. Incubate at room temperature for 4 hours. • 4. Aliquot 3 mL of PNPP to each 4 mL glass vial, let sit for 1 hr. • a. Aliquot 750 μL into the 4 mL glass vial to stop the reaction. • 5.
Series [7] concerns alkaline phosphatase. Type of series: biochemical. The following applies: 3-hour exposure.
[8] abbreviates: frozen porcine skin with fat layer removed.
Setting [9] is: skin, chemical lists of the experiments.

The values below come from patent publication US12559784B2 (priority 2023, dated 2026).

Values joined by “and” are separate entries in the source; they are usually repeats but may differ in a detail not shown here. Equal entries are not always repeated. Where two headings read alike, the source gives them in different places.

Regarding `CSc1ccc(C=O)cc1`, the “OD405 reading, 1:100 ethanol solvent condition, 37° C.” value in the series on alkaline phosphatase [1] (37° C.) is 0.857. Besides, in the series on alkaline phosphatase [1] (room temperature), the “OD405 reading, 1:100 ethanol solvent condition, room temperature” value was found to be 2.243. Besides, in the series on alkaline phosphatase [2], the “A2 - Results AVG” value was found to be 3.333, the “A2 - Results R1” value was found to be 3.379 and the “A2 - Results R3” value is 3.266.
Consider `CCCCCCC=O` [Heptanal], for which, in the series with skin (rabbit, in vivo), the Corrosive entry is on record as “No” and the “in vivo GHS” value is on record as “Cat. 2”. For the same compound, the OD190 in the series on porcine skin (fresh porcine skin, 140 μL test chemical, >3A = outside readable range) was 0.486 and 0.365. Besides, in the series on porcine skin (fresh porcine skin), the OD290 was 0.170 and 0.165; the OD300 is 0.123. Also, in the series on porcine skin (setting [8]), the OD190 is 0.144 and 0.149; the OD290 was 0.111 and 0.140; the OD300 was 0.040 and 0.050. Moreover, in the series on porcine skin (frozen porcine skin), the OD190 was 0.362 and 0.371; the OD290 is 0.245 and 0.241; the OD300 is 0.154 and 0.137. In the series on phosphatase (average of two readings), the “percent of phosphatase measured (optical density compared to the naïve condition), average” value is 97.2%. Further, the “percent of phosphatase measured (optical density compared to the naïve condition)” value with phosphatase (single readings) is 100.0% and 94.4%. In the series with alkaline phosphatase [2], the “A2 - Results AVG” value came out at 2.408, the “A2 - Results R1” value came out at 2.730 and the “A2 - Results R3” value was determined as 2.098. In the series on alkaline phosphatase [3], the “OD405 readings, glass vials (FIG. 12B)” value is 0.804 and 0.852 and 0.901; the “OD405 readings, microcentrifuge tubes (FIG. 12B)” value was 2.360 and 2.539 and 2.690.
As to `CCCCCCCN` [n-Heptylamine], the “in vivo GHS” value in the series with skin (setting [9]) is recorded as “Cat. 1B/1C”. Moreover, the “OD405 readings, original alkaline phosphatase 1:100 (FIG. 6D)” value (“OD405 readings … (FIG. 6D)” below) in the series on alkaline phosphatase [4] is 3.244 and 3.057 and 3.152. In the series on alkaline phosphatase [2], the “A2 - Results AVG” value is on record as 0.175, the “A2 - Results R1” value came to 0.170 and the “A2 - Results R3” value is reported as 0.193. Besides, in [5], the solubility with water entry is recorded as “mostly insoluble with water”.
Consider `CC(C)N(C)C` [Dimethylisopropylamine], for which, in the series with skin (setting [9]), the “in vivo GHS” value was “Cat. 1B/1C”. Also, in the series on alkaline phosphatase [4], the “OD405 readings … (FIG. 6D)” value is 3.466 and 3.502. Besides, in the series with alkaline phosphatase [2], the “A2 - Results AVG” value was found to be 0.244, the “A2 - Results R1” value was 0.226 and the “A2 - Results R3” value is given as 0.295. For the same compound, in [5], the solubility with water result is given as “mostly insoluble with water”. In the series on alkaline phosphatase [6], the “OD405 readings, buffered saline alkaline phosphatase reaction reagent, glass vials (FIG. 11B)” value is 3.354 and 3.466 and 3.502; the “OD405 readings, ethanol alkaline phosphatase reaction reagent, glass vials (FIG. 11D)” value is 2.926 and 2.922 and 2.852.
Take `CN(C)Cc1ccccc1` [N,N-Dimethylbenzylamine]: the “in vivo GHS” value with skin (rabbit, in vivo) is “Cat. 1C”. In addition, the “OD405 reading, 1:1000 ethanol solvent condition (FIG. 9B)” value in the series on alkaline phosphatase [1] was 0.587. Further, the “OD405 readings … (FIG. 6D)” value in the series on alkaline phosphatase [4] is 3.431 and 3.502 and 3.61. Further, in the series on alkaline phosphatase [2], the “A2 - Results AVG” value was found to be 0.570, the “A2 - Results R1” value is 0.588 and the “A2 - Results R3” value turned out to be 0.539. Moreover, in series [5], the solubility with water result was “mostly insoluble with water”. Besides, in the series with alkaline phosphatase [6], the “OD405 readings, buffered saline alkaline phosphatase reaction reagent, glass vials (FIG. 11B)” value was 3.360 and 3.238 and 3.273; the “OD405 readings, ethanol alkaline phosphatase reaction reagent, glass vials (FIG. 11D)” value is 3.429 and 3.249 and 3.164.
Consider `ClCCCCBr` [1-Bromo-4-chlorobutane], for which the “OD405 reading, 1:1000 ethanol solvent condition (FIG. 9B)” value in the series with alkaline phosphatase [1] came out at 0.799. In addition, in the series with alkaline phosphatase [2], the “A2 - Results AVG” value was found to be 2.849, the “A2 - Results R1” value is given as 2.948 and the “A2 - Results R3” value came to 2.869. Also, in the series with alkaline phosphatase [7] (10 μL into 90 μL), the “OD405 reading, ethanol solvent, 10 μL dose, 30-minute PNPP (FIG. 7A)” value was determined as 3.349. Moreover, the “OD405 reading, ethanol solvent, 50 μL dose, 30-minute PNPP (FIG. 7A)” value in the series with alkaline phosphatase [7] (50 μL into 50 μL) turned out to be 0.700.
